The values below come from PubChem BioAssay AID248 (DTP/NCI, 2004).

The subject of the assay is L1210 leukemia ip in BDF1 mice, survival T/C. The assay can be described thus: NCI In Vivo Anticancer Drug Screen. Data for tumor model L1210 Leukemia (intraperitoneal) in B6D2F1 (BDF1) mice. The settings on record: endpoint: mean survival time, higher = longer survival. In short, it runs like this: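 Transplanted-tumor mice were given test agent; controls received vehicle only. Survival readings from the two groups were divided (treated over control).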

The mark [1] stands for this setting: dose: 100.0 mg/kg/injection, schedule: Q01DX009 (ip), vehicle: other.
The mark [2] stands for this setting: dose: 200.0 mg/kg/injection, schedule: Q01DX009 (ip), vehicle: other.
The mark [3] stands for this setting: dose: 100.0 mg/kg/injection, schedule: Q04DX003 (ip), vehicle: Klucel (hydroxypropylcellulose) (HPC).
The mark [4] stands for this setting: dose: 200.0 mg/kg/injection, schedule: Q04DX003 (ip), vehicle: Klucel (hydroxypropylcellulose) (HPC).
Setting [5] is: dose: 100.0 mg/kg/injection, schedule: Q01DX001 (ip), vehicle: carboxymethylcellulose (CMC).
[6] abbreviates: dose: 200.0 mg/kg/injection, schedule: Q01DX001 (ip), vehicle: carboxymethylcellulose (CMC).
Where [7] appears, read: dose: 400.0 mg/kg/injection, schedule: Q01DX001 (ip), vehicle: carboxymethylcellulose (CMC).
[8] abbreviates: dose: 100.0 mg/kg/injection, schedule: Q01DX001 (ip), vehicle: saline.
Where [9] appears, read: dose: 100.0 mg/kg/injection, schedule: Q04DX002 (ip), vehicle: saline with Tween-80.
Setting [10] is: dose: 200.0 mg/kg/injection, schedule: Q04DX002 (ip), vehicle: saline with Tween-80.
[11] abbreviates: dose: 400.0 mg/kg/injection, schedule: Q04DX002 (ip), vehicle: saline with Tween-80.

Several values for one entry are separate records, joined by “and”; a condition that tells them apart may be missing. Equal values may be shown once. Toxic doses and inconclusive results are not listed.

`CCCCCCCCCCCCCC(=O)OC1C(CO)OC2C1Oc1nc(=N)ccn12` (stereo unspecified): the T/C is 152 % of control (dose: 25.0 mg/kg/injection, schedule: Q01DX009 (ip), vehicle: other); 171 % of control (dose: 50.0 mg/kg/injection, schedule: Q01DX009 (ip), vehicle: other); 214 % of control under setting [1]; 179 % of control under setting [2].
Turning to `FC(F)(F)c1ccc2c(c1)N(CCCCl)c1ccccc1S2`, the T/C runs as follows: (dose: 50.0 mg/kg/injection, schedule: Q04DX003 (ip), vehicle: Klucel (hydroxypropylcellulose) (HPC)) 103 % of control; under setting [3], 118 % of control; under setting [4], 105 % of control; (dose: 400.0 mg/kg/injection, schedule: Q04DX003 (ip), vehicle: Klucel (hydroxypropylcellulose) (HPC)) 115 % of control.
`CCOP(=O)(Nc1cccc(Cl)c1)OCC`: the T/C reads like this: (dose: 50.0 mg/kg/injection, schedule: Q01DX001 (ip), vehicle: carboxymethylcellulose (CMC)) 94 % of control; under setting [5], 94 % of control; under setting [6], 105 % of control; under setting [7], 103 % of control.
With `N/C(=N\O)c1cn(C2OC(CO)C(O)C2O)c2ncncc12` (stereo unspecified), the T/C runs as follows: (dose: 25.0 mg/kg/injection, schedule: Q01DX009 (ip), vehicle: saline) 123 % of control; (dose: 100.0 mg/kg/injection, schedule: Q01DX005 (ip), vehicle: saline) 120 % of control.
For the molecule `c1ccc(C(C(=Nc2ccc(Cc3ccc(N=C(C(c4ccccc4)c4ccccc4)N4CC4)cc3)cc2)N2CC2)c2ccccc2)cc1`, the T/C reads like this: (dose: 70.0 mg/kg/injection, schedule: Q01DX009 (ip), vehicle: saline) 103 % of control; (dose: 140.0 mg/kg/injection, schedule: Q01DX009 (ip), vehicle: saline) 104 % of control; (dose: 280.0 mg/kg/injection, schedule: Q01DX009 (ip), vehicle: saline) 93 % of control.
For the molecule `O=C1NC(=O)N(Cc2ccccc2)C(=O)C1Cc1ccccc1` (stereo unspecified), the T/C under setting [5] was 97 % of control, the T/C under setting [6] was 95 % of control and the T/C under setting [7] was 103 % of control.
Regarding `C[N+]1(C)CC2C3C=CC(C3)C2C1` (stereo unspecified), the T/C by setting is: under setting [3], 102 % of control; under setting [4], 96 % of control.
With `CC(C)(O)C(=NCc1ccccc1)c1ccccc1`, the T/C is 97 % of control (dose: 75.0 mg/kg/injection, schedule: Q04DX003 (ip), vehicle: other); 92 % of control (dose: 150.0 mg/kg/injection, schedule: Q04DX003 (ip), vehicle: other); 98 % of control (dose: 300.0 mg/kg/injection, schedule: Q04DX003 (ip), vehicle: other).
On to `CCCCCCCCCCCCCCCC(=O)N1CCCN(C(=O)CCCCCCCCCCCCCCC)C1`, for which the T/C by setting is: (dose: 30.0 mg/kg/injection, schedule: Q01DX001 (ip), vehicle: saline) 93 % of control; under setting [8], 88 % of control; (dose: 300.0 mg/kg/injection, schedule: Q01DX001 (ip), vehicle: saline) 94 % of control.
With `NC(=O)Cn1cnc2c(Cl)ncnc21`, the T/C reads like this: (dose: 100.0 mg/kg/injection, schedule: Q04DX003 (ip), vehicle: saline with Tween-80) 104 % of control; (dose: 200.0 mg/kg/injection, schedule: Q04DX003 (ip), vehicle: saline with Tween-80) 102 % of control; (dose: 400.0 mg/kg/injection, schedule: Q04DX003 (ip), vehicle: saline with Tween-80) 120 % of control.
Take `CNC(=O)Nc1ccccc1C(=O)NN`: the T/C under setting [1] is 100 % of control and the T/C under setting [2] was 96 % of control.
For the molecule `Cc1cc(O)c(O)c(C(C)(C)C)c1`, the T/C (dose: 100.0 mg/kg/injection, schedule: Q04DX002 (ip), vehicle: other) was 102 % of control and the T/C (dose: 200.0 mg/kg/injection, schedule: Q04DX002 (ip), vehicle: other) was 87 % of control.
Consider `C=[CH][Sn]([CH]=C)([CH]=C)[O]C(C)=O`, for which the T/C was 103 % of control (dose: 1.56 mg/kg/injection, schedule: Q01DX009 (ip), vehicle: Klucel (hydroxypropylcellulose) (HPC)); 94 % of control (dose: 3.12 mg/kg/injection, schedule: Q01DX009 (ip), vehicle: Klucel (hydroxypropylcellulose) (HPC)); 98 % of control (dose: 6.25 mg/kg/injection, schedule: Q01DX009 (ip), vehicle: Klucel (hydroxypropylcellulose) (HPC)); 103 % of control (dose: 12.5 mg/kg/injection, schedule: Q01DX009 (ip), vehicle: Klucel (hydroxypropylcellulose) (HPC)); 102 % of control (dose: 12.5 mg/kg/injection, schedule: Q04DX002 (ip), vehicle: Klucel (hydroxypropylcellulose) (HPC)); 105 % of control (dose: 25.0 mg/kg/injection, schedule: Q04DX002 (ip), vehicle: Klucel (hydroxypropylcellulose) (HPC)).
On to `CCCN1C(=O)CCC1=O`, for which the T/C runs as follows: (dose: 75.0 mg/kg/injection, schedule: Q04DX003 (ip), vehicle: saline) 109 % of control; (dose: 150.0 mg/kg/injection, schedule: Q04DX003 (ip), vehicle: saline) 97 % of control; (dose: 300.0 mg/kg/injection, schedule: Q04DX003 (ip), vehicle: saline) 101 % of control.
Take `CC(=O)CCC(=O)NC(C)C`: the T/C runs as follows: under setting [9], 102 % of control; under setting [10], 102 % of control; under setting [11], 117 % of control.
As for `CON=C1CCC(C(C)(C)C)CC1` (stereo unspecified), the T/C (dose: 75.0 mg/kg/injection, schedule: Q01DX001 (ip), vehicle: carboxymethylcellulose (CMC)) is 106 % of control.
`O=c1[nH]cc(C(F)(F)F)c(=O)[nH]1`: the T/C runs as follows: (dose: 4.0 mg/kg/injection, schedule: Q01DX Z (oral), vehicle: methylcellulose (MC)) 106 % of control; (dose: 8.0 mg/kg/injection, schedule: Q01DX Z (oral), vehicle: methylcellulose (MC)) 102 % of control; (dose: 12.0 mg/kg/injection, schedule: Q01DX Z (oral), vehicle: methylcellulose (MC)) 103 % of control and 91 % of control; (dose: 16.0 mg/kg/injection, schedule: Q01DX Z (oral), vehicle: methylcellulose (MC)) 90 % of control; (dose: 50.0 mg/kg/injection, schedule: Q01DX Z (ip), vehicle: saline) 103 % of control; (dose: 100.0 mg/kg/injection, schedule: Q01DX Z (ip), vehicle: saline) 107 % of control. Also, the T/C was 116 % of control and 123 % of control (dose: 200.0 mg/kg/injection, schedule: Q01DX Z (ip), vehicle: saline); 124 % of control (dose: 300.0 mg/kg/injection, schedule: Q01DX Z (ip), vehicle: saline); 98 % of control (dose: 400.0 mg/kg/injection, schedule: Q01DX Z (ip), vehicle: saline); 117 % of control (dose: 500.0 mg/kg/injection, schedule: Q01DX Z (ip), vehicle: saline); 111 % of control (dose: 500.0 mg/kg/injection, schedule: Q01DX Z (oral), vehicle: methylcellulose (MC)); 93 % of control (dose: 1000.0 mg/kg/injection, schedule: Q01DX Z (oral), vehicle: methylcellulose (MC)). The T/C is 94 % of control (dose: 1500.0 mg/kg/injection, schedule: Q01DX Z (oral), vehicle: methylcellulose (MC)) and 88 % of control (dose: 2000.0 mg/kg/injection, schedule: Q01DX Z (oral), vehicle: methylcellulose (MC)).
For `Cc1ccc(C(=O)C(C)CN2CCCCC2)cc1` (stereo unspecified), the T/C under setting [8] is 97 % of control and the T/C (dose: 200.0 mg/kg/injection, schedule: Q01DX001 (ip), vehicle: saline) was 94 % of control.
On to `CC(NC(=O)C(C)(C)C)c1ccc(-c2ccccc2)cc1` (stereo unspecified), for which the T/C is 98 % of control under setting [9], 95 % of control under setting [10] and 98 % of control under setting [11].
Consider `CC(=O)Nc1ccn(C2OC(COC(C)=O)C(OC3OC(COC(C)=O)C(OC(C)=O)C(OC(C)=O)C3OC(C)=O)C(OC(C)=O)C2OC(C)=O)c(=O)n1` (stereo unspecified), for which the T/C is, setting by setting: (dose: 22.5 mg/kg/injection, schedule: Q01DX001 (ip), vehicle: carboxymethylcellulose (CMC)) 103 % of control; (dose: 45.0 mg/kg/injection, schedule: Q01DX001 (ip), vehicle: carboxymethylcellulose (CMC)) 100 % of control; (dose: 90.0 mg/kg/injection, schedule: Q01DX001 (ip), vehicle: carboxymethylcellulose (CMC)) 100 % of control; (dose: 180.0 mg/kg/injection, schedule: Q01DX001 (ip), vehicle: carboxymethylcellulose (CMC)) 100 % of control.
